Data published in paper PMC4125463 (Cancer prevention research (Philadelphia, Pa.), 2014).

Assays:
Format in all cases: biochemical
[1] = target: ERK2 (Homo sapiens, UniProt P28482); assay: […] kinase assay with recombinant active ERK2
[2] = target: p38α (Homo sapiens, UniProt Q16539); assay: […] kinase assay with recombinant active p38α
[3] = target: p110α (PI3-K) (Homo sapiens, UniProt P42336); assay: […] lipid kinase assay with recombinant active p110α
Sequence of p110α (PI3-K) (P42336 whole entry): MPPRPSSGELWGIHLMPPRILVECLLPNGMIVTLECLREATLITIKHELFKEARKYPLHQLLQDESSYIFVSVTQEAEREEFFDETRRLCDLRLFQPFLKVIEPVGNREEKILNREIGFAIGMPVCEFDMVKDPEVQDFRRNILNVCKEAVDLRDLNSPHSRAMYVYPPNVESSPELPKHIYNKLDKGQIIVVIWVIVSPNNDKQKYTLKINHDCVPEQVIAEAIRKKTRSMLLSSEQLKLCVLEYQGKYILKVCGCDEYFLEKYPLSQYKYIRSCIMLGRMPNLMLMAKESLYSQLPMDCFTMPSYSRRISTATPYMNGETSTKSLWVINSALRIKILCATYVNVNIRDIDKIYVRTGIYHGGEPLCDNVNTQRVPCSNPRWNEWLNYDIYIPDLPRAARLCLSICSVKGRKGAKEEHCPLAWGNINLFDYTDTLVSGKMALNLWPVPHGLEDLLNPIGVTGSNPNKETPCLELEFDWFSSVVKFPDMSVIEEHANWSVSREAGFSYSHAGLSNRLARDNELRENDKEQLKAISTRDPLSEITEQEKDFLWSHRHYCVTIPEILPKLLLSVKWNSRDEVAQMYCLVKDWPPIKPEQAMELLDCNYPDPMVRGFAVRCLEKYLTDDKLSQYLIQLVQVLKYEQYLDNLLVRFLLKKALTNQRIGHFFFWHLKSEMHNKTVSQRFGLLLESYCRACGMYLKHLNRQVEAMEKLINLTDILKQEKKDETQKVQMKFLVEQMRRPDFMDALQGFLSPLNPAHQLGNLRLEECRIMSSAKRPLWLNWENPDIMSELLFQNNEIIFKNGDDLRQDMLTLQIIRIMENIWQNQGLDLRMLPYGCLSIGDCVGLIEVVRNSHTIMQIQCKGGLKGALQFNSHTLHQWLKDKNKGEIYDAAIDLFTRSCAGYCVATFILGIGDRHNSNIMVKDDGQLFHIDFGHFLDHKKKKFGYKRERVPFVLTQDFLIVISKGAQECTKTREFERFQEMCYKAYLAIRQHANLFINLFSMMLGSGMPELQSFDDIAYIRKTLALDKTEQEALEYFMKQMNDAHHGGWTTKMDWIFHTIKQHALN

Sequence of ERK2 (P28482 2-360): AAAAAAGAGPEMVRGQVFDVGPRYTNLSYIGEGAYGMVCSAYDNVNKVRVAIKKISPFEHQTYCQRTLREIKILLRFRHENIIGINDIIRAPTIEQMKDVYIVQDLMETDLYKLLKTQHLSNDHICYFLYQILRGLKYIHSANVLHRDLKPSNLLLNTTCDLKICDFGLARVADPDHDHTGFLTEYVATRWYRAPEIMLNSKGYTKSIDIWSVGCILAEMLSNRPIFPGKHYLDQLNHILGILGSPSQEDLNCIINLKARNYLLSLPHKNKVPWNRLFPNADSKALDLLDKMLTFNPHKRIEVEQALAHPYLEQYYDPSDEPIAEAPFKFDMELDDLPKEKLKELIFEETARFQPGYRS
Sequence of p38α (Q16539 2-360): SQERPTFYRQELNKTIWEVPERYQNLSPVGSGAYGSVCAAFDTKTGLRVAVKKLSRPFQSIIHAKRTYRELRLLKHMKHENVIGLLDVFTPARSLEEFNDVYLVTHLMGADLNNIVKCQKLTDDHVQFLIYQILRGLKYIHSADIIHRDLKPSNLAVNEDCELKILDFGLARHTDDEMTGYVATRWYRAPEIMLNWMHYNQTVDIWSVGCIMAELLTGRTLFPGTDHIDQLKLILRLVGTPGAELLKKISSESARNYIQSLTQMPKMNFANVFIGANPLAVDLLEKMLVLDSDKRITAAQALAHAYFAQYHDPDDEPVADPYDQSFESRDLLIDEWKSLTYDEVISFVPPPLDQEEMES

Compound `O=C1CCC(O)(CCOC(=O)/C=C/c2ccc(O)c(O)c2)CC1` [HOEC, (+)-2-(1-hydroxyl-4-oxocyclohexyl) ethyl caffeate] has an IC50 [1] of 20.9 µM, an IC50 [2] of 12.9 µM and an IC50 [3] of 10.3 µM.
